Test results published in patent US20140249084A1, “PTH-CONTAINING THERAPEUTIC/PROPHYLACTIC AGENT FOR OSTEOPOROSIS, CHARACTERIZED IN THAT PTH IS ADMINISTERED ONCE A WEEK IN A UNIT DOSE OF 100 TO 200 UNITS” (ASAHI KASEI PHARMA CORPORATION, priority 2009, published 2014).

How the values were obtained:
[1] = system: patients diagnosed with primary osteoporosis; assay: Fractures at sites other than the vertebrae (roentgen films), Working Example 1; type: in vivo, human; conditions: fractures of sites other than the vertebrae
Experimental: (§1) Both the 5 and 100 unit groups were administered two tablets of a calcium agent (containing 500 mg of precipitated calcium carbonate [200 mg as calcium] per tablet) once a day.
(§2) The osteoporosis patients were classified as condition shown in Table 1 based on the bone fracture risk factors present, as in Non-patent Reference 13, and compared. High-risk patients were defined as having all three factors involving age, prevalent vertebral fractures, and bone density or bone atrophy; low-risk patients were defined as other than the above.

[2] = in vivo
Excerpt: The incidence of adverse events was studied after administering the test drug to the a group of osteoporosis patients having normal renal function, a group of osteoporosis patients having mild renal dysfunction, and a group of osteoporosis patients having moderate renal dysfunction.

[3] = in vivo; remark: listed apart in the source
Experimental: The Lumbar spine bone mineral density and occurrence of bone fractures were checked as bone assessments. For the Lumbar spine bone mineral density, the bone density of the second to fourth lumbar spine was measured at the start and every six months thereafter using dual-energy x-ray absorptiometry (DXA). For the frequency of bone fractures, x-rays were taken from the front and side of the fourth thoracic to the fifth lumbar spine at the start and every six months thereafter, and new vertebral fractures were assessed by comparison of the roentgen films at the start and at each point in time thereafter using the method of Genant et al. (Non-patent Reference 14) as a reference. In locations other than the vertebrae, fractures were evaluated by checking by roentgen films. Blood samples were also taken from all patients at the beginning and during administration, and the general laboratory test values, including the calcium concentration, were measured. The administration period in high-risk patients (DXA and new vertebral fractures were assessed collectively at the center; fractures of other than vertebrae were assessed by the investigator based on the roentgen films) was 85.1±20.8 weeks in the 5 unit group and 83.7±19.8 weeks in the 100 unit group. […] The administration period in low-risk patients was 72.7±19.4 weeks in the 5 unit group and 88.3±21.3 weeks in the 100 unit group.

[4] = system: high-risk patients diagnosed with primary osteoporosis; assay: Vertebral fractures (new+worsening), Kaplan-Meier estimation, Working Example 2; type: in vivo, human; conditions: after 72 weeks; FAS; 200 units once a week
Excerpt: (§3) The incidence of bone fractures was checked by frontal and lateral x-rays of the fourth thoracic to the fourth lumbar spine taken at the start and every 24 weeks thereafter.
The incidence of vertebral fractures (new±worsening) after 72 weeks by Kaplan-Meier estimation in the FAS of the fracture study was 3.5% in the PTH200 group and 16.3% in the P group. The incidence with 200 units of this drug was lower than in the placebo group (log rank test, p<0.0001). […] When the six-month vertebral fracture (new+worsening) incidence was compared between groups, the incidence of the PTH200 group was lower than that of the P group in all divisions consisting of within 24 weeks, 24 to 48 weeks, and 48 to 72 weeks.

[5] = system: patients diagnosed with primary osteoporosis; assay: New vertebral fractures by x-ray (method of Genant), Working Example 1; type: in vivo, human; conditions: for Incidence (%) / No. of fractures / No. with fractures: new vertebral fractures every 26 weeks; for No. of vertebral fractures / No. with fractures (persons): new vertebral fractures
Experimental: as §1, §2

[6] = system: patients diagnosed with primary osteoporosis; assay: Lumbar spine bone mineral density by DXA, Working Example 1 (5 or 100 units once a week); type: in vivo, human; conditions: low-risk patients, only one patient
Experimental: as §1, §2

[7] = system: high-risk patients diagnosed with primary osteoporosis; assay: Lumbar spine bone density by DXA, Working Example 2; type: in vivo, human; conditions: 200 units once a week; for Change in bone density (%): patients taking glucocorticoid
Experimental: For the bone density of the lumbar spine, the density of the second to fourth lumbar spine was measured at the start and every 24 weeks thereafter using dual-energy x-ray absorptiometry (DXA).

[8] = system: high-risk patients diagnosed with primary osteoporosis; assay: Worsening vertebral fractures, Working Example 2; type: in vivo, human; conditions: FAS, 200 units once a week
Excerpt: The vertebral fractures in the present invention also include both new fractures and worsening fractures. […] New and worsening [fractures] can be classified by the grade increase pattern according to the criteria of Genant. Concretely speaking, a fracture is diagnosed as a new fracture when a change is found from grade 0 to grade 1, 2, or 3. It can be regarded as a worsening fracture when a change is found from grade 1 to grade 2 or 3 or from grade 2 to grade 3. The vertebral height was measured according to the method of Inoue et al. (Non-patent reference 35) and the method of Hayashi et al. (Non-patent Reference 36) to accurately assess the changes in grade.
as §3

[9] = high-risk patients, 5 units once a week
[10] = high-risk patients, 100 units once a week
[11] = low-risk patients, 5 units once a week
[12] = low-risk patients, 100 units once a week
[13] = high-risk patients, 5 units once a week, After 26 W
[14] = high-risk patients, 5 units once a week, After 52 W
[15] = high-risk patients, 5 units once a week, After 78 W
[16] = high-risk patients, 5 units once a week, After 104 W
[17] = high-risk patients, 5 units once a week, After 130 W
[18] = high-risk patients, 100 units once a week, After 26 W
[19] = high-risk patients, 100 units once a week, After 52 W
[20] = high-risk patients, 100 units once a week, After 78 W
[21] = high-risk patients, 100 units once a week, After 104 W
[22] = high-risk patients, 100 units once a week, After 130 W
[23] = low-risk patients, 5 units once a week, After 26 W
[24] = low-risk patients, 5 units once a week, After 52 W
[25] = low-risk patients, 5 units once a week, After 78 W
[26] = low-risk patients, 5 units once a week, After 104 W
[27] = low-risk patients, 5 units once a week, After 130 W
[28] = low-risk patients, 100 units once a week, After 26 W
[29] = low-risk patients, 100 units once a week, After 52 W
[30] = low-risk patients, 100 units once a week, After 78 W
[31] = low-risk patients, 100 units once a week, After 104 W
[32] = low-risk patients, 100 units once a week, After 130 W

With teriparatide acetate the “No. with fractures (persons)” value [1, 9] was 6 persons, the “No. with fractures (persons)” value [1, 10] was 1 persons and the “No. with fractures (persons)” value [1, 11] was 1 persons. The “No. with fractures (persons)” value [1, 12] was 0 persons, the “Adverse events: No (%)” value [2] was 4.4% and the “Adverse events: No, No. of cases” value [2] was 2. The “Adverse events: Point estimate of the difference” value [2] was 2.0, the “Adverse events: Yes, No. of cases” value [2] was 65 and the Hypercalcemia [3] was “did not cause hypercalcemia at either dose”. The “Tendency for the serum calcium to rise” value [3] was “no tendency for the serum calcium to rise was seen”, the “Incidence of vertebral fractures (new±worsening) by Kaplan-Meier estimation” value [4] was 3.5% and the “Incidence (%)” value [5, 13] was 9.5%. For the same substance, the No. of fractures [5, 13] was 8, the No. with fractures [5, 13] was 6 and the “Incidence (%)” value [5, 14] was 11.1%. The No. of fractures [5, 14] was 9, the No. with fractures [5, 14] was 7 and the “Incidence (%)” value [5, 15] was 7.0%. The No. of fractures [5, 15] was 4, the No. with fractures [5, 15] was 4 and the “Incidence (%)” value [5, 16] was 2.9%. The No. of fractures [5, 16] was 1, the No. with fractures [5, 16] was 1 and the No. of fractures [5, 17] was 0. The No. with fractures [5, 17] was 0, the “Incidence (%)” value [5, 18] was 2.0% and the No. of fractures [5, 18] was 1. For the same substance, the No. with fractures [5, 18] was 1, the “Incidence (%)” value [5, 19] was 2.0% and the No. of fractures [5, 19] was 1. The No. with fractures [5, 19] was 1, the “Incidence (%)” value [5, 20] was 2.2% and the No. of fractures [5, 20] was 1. The No. with fractures [5, 20] was 1, the No. of fractures [5, 21] was 0 and the No. with fractures [5, 21] was 0. For the same substance, the No. of fractures [5, 22] was 0, the No. with fractures [5, 22] was 0 and the No. of fractures [5, 23] was 0. The No. with fractures [5, 23] was 0, the “Incidence (%)” value [5, 24] was 4.8% and the No. of fractures [5, 24] was 1. For the same substance, the No. with fractures [5, 24] was 1, the No. of fractures [5, 25] was 0 and the No. with fractures [5, 25] was 0. For the same substance, the No. of fractures [5, 26] was 0, the No. with fractures [5, 26] was 0 and the No. of fractures [5, 27] was 0. For the same substance, the No. with fractures [5, 27] was 0, the “Incidence (%)” value [5, 28] was 8.3% and the No. of fractures [5, 28] was 2. It also gave a No. with fractures [5, 28] of 1, a No. of fractures [5, 29] of 0 and a No. with fractures [5, 29] of 0. It also gave a No. of fractures [5, 30] of 0, a No. with fractures [5, 30] of 0 and a No. of fractures [5, 31] of 0. For the same substance, the No. with fractures [5, 31] was 0, the No. of fractures [5, 32] was 0 and the No. with fractures [5, 32] was 0. For the same substance, the “No. of vertebral fractures” value [5, 9] was 22, the “No. with fractures (persons)” value [5, 9] was 13 persons and the “No. of vertebral fractures” value [5, 10] was 3. The “No. with fractures (persons)” value [5, 10] was 3 persons, the “No. of vertebral fractures” value [5, 11] was 1 and the “No. with fractures (persons)” value [5, 11] was 1 persons. For the same substance, the “No. of vertebral fractures” value [5, 12] was 2, the “No. with fractures (persons)” value [5, 12] was 1 persons and the “Lumbar spine bone mineral density (% change)” value ([6]; After 26 W) was 3.2%. For the same substance, the “Lumbar spine bone mineral density (% change)” value ([6]; After 52 W) was 6.1%, the “Lumbar spine bone mineral density (% change)” value ([6]; After 78 W) was 12.0% and the “Lumbar spine bone mineral density (% change)” value ([6]; Final check) was 12.0%. For the same substance, the “Percentage change in bone density (%)” value ([7]; 24 W, history of Alfacalcidol) was 3.11%, the “Percentage change in bone density (%)” value ([7]; 24 W, history of Calcitriol) was 3.50% and the “Percentage change in bone density (%)” value ([7]; 24 W, history of Calcium L-aspartate) was 3.78%. For the same substance, the “Percentage change in bone density (%)” value ([7]; 24 W, history of Calcium lactate) was 1.96%, the “Percentage change in bone density (%)” value ([7]; 24 W, history of Elcatonin) was 3.95% and the “Percentage change in bone density (%)” value ([7]; 24 W, history of Menatetrenone) was 2.70%. For the same substance, the “Percentage change in bone density (%)” value ([7]; 24 W, history of Raloxifene hydrochloride) was 1.77%, the “Change in bone density (%)” value ([7]; 24 W) was 3.50% and the “Percentage change in bone density (%)” value ([7]; 48 W, history of Alfacalcidol) was 5.47%. The “Percentage change in bone density (%)” value ([7]; 48 W, history of Calcitriol) was 4.40%, the “Percentage change in bone density (%)” value ([7]; 48 W, history of Calcium L-aspartate) was 6.16% and the “Percentage change in bone density (%)” value ([7]; 48 W, history of Calcium lactate) was 3.45%. For the same substance, the “Percentage change in bone density (%)” value ([7]; 48 W, history of Elcatonin) was 3.59%, the “Percentage change in bone density (%)” value ([7]; 48 W, history of Menatetrenone) was 3.04% and the “Percentage change in bone density (%)” value ([7]; 48 W, history of Raloxifene hydrochloride) was 4.96%. For the same substance, the “Change in bone density (%)” value ([7]; 48 W) was 5.97%, the “Percentage change in bone density (%)” value ([7]; 72 W, history of Alfacalcidol) was 6.47% and the “Percentage change in bone density (%)” value ([7]; 72 W, history of Calcitriol) was 6.38%. The “Percentage change in bone density (%)” value ([7]; 72 W, history of Calcium L-aspartate) was 5.85%, the “Percentage change in bone density (%)” value ([7]; 72 W, history of Calcium lactate) was 4.93% and the “Percentage change in bone density (%)” value ([7]; 72 W, history of Elcatonin) was 5.36%. For the same substance, the “Percentage change in bone density (%)” value ([7]; 72 W, history of Menatetrenone) was 4.32%, the “Percentage change in bone density (%)” value ([7]; 72 W, history of Raloxifene hydrochloride) was 4.59% and the “Change in bone density (%)” value ([7]; 72 W) was 6.82%. The “Difference between test drug group and control group after 72 W (%)” value ([8]; incidence of worsening fractures) was 1.8% and the No. with fractures ([8]; worsening fractures) was 1.
